Test results taken from the NIST ThermoML archive (doi:10.1016/j.jct.2010.11.017).

Assay: mn = molality of the nth substance listed, in mol/kg
Settings: 101 kPa, Liquid; for viscosity: Capillary tube (Ostwald / Ubbelohde) method; for speed of sound: Frequency=3 MHz, Linear variable-path acoustic interferometer; for mass density: Pycnometric method

N[C@@H](Cc1c[nH]cn1)C(=O)O [L-histidine] + O
Settings | mass density [kg/m3] | speed of sound [m/s] | viscosity [mPa·s]
293.15 K, m1 = 0.0199 | 999.39 | 1488.1 | 1.014
293.15 K, m1 = 0.0399 | 1000.54 | 1491.8 | 1.024
293.15 K, m1 = 0.0599 | 1001.69 | 1494.5 | 1.035
293.15 K, m1 = 0.0799 | 1002.84 | 1496.5 | 1.045
293.15 K, m1 = 0.1 | 1003.99 | 1497.4 | 1.056
293.15 K, m1 = 0.1199 | 1005.14 | 1497.5 | 1.066
293.15 K, m1 = 0.14 | 1006.29 | 1496.5 | 1.077
293.15 K, m1 = 0.16 | 1007.44 | 1494.8 | 1.087
298.15 K, m1 = 0.0199 | 998.22 | 1501.1 | 0.9001
298.15 K, m1 = 0.0399 | 999.37 | 1504.4 | 0.9083
298.15 K, m1 = 0.0599 | 1000.52 | 1506.8 | 0.9164
298.15 K, m1 = 0.0799 | 1001.68 | 1508.1 | 0.925
298.15 K, m1 = 0.1 | 1002.83 | 1508.6 | 0.933
298.15 K, m1 = 0.1199 | 1003.98 | 1507.9 | 0.9411
298.15 K, m1 = 0.14 | 1005.13 | 1506.5 | 0.95
298.15 K, m1 = 0.16 | 1006.28 | 1504.2 | 0.9583
303.15 K, m1 = 0.0199 | 996.83 | 1512.3 | 0.8052
303.15 K, m1 = 0.0399 | 997.99 | 1515.1 | 0.8119
303.15 K, m1 = 0.0599 | 999.14 | 1517 | 0.8187
303.15 K, m1 = 0.0799 | 1000.3 | 1517.7 | 0.8256
303.15 K, m1 = 0.1 | 1001.46 | 1518 | 0.8318
303.15 K, m1 = 0.1199 | 1002.61 | 1516.4 | 0.8383
303.15 K, m1 = 0.14 | 1003.76 | 1514.2 | 0.8451
303.15 K, m1 = 0.16 | 1004.91 | 1511.5 | 0.8513
308.15 K, m1 = 0.0199 | 995.23 | 1523.3 | 0.7255
308.15 K, m1 = 0.0399 | 996.39 | 1525.7 | 0.7309
308.15 K, m1 = 0.0599 | 997.55 | 1527.1 | 0.7362
308.15 K, m1 = 0.0799 | 998.71 | 1527.6 | 0.7415
308.15 K, m1 = 0.1 | 999.87 | 1527.2 | 0.7464
308.15 K, m1 = 0.1199 | 1001.02 | 1525.5 | 0.7515
308.15 K, m1 = 0.14 | 1002.19 | 1522.8 | 0.7568
308.15 K, m1 = 0.16 | 1003.34 | 1519.8 | 0.762
313.15 K, m1 = 0.0199 | 993.41 | 1529.9 | 0.6581
313.15 K, m1 = 0.0399 | 994.58 | 1531.9 | 0.6623
313.15 K, m1 = 0.0599 | 995.74 | 1532.8 | 0.6665
313.15 K, m1 = 0.0799 | 996.91 | 1533 | 0.6705
313.15 K, m1 = 0.1 | 998.08 | 1532.2 | 0.6745
313.15 K, m1 = 0.1199 | 999.23 | 1530.3 | 0.6788
313.15 K, m1 = 0.14 | 1000.4 | 1527.3 | 0.683
313.15 K, m1 = 0.16 | 1001.56 | 1523.7 | 0.6869
318.15 K, m1 = 0.0199 | 991.41 | 1535.7 | 0.6018
318.15 K, m1 = 0.0399 | 992.58 | 1537.3 | 0.605
318.15 K, m1 = 0.0599 | 993.75 | 1538 | 0.6082
318.15 K, m1 = 0.0799 | 994.92 | 1537.6 | 0.6114
318.15 K, m1 = 0.1 | 996.1 | 1536.3 | 0.6148
318.15 K, m1 = 0.1199 | 997.26 | 1534.1 | 0.6175
318.15 K, m1 = 0.14 | 998.44 | 1530.5 | 0.6208
318.15 K, m1 = 0.16 | 999.6 | 1526.5 | 0.6238
